In US9133207B2, “Tetrandrine derivatives with substituted 5-carbon, preparation method and use thereof” (Hangzhou Bensheng Pharmaceutical Co., Ltd., priority 2011, dated 2015):
≈ marks a conversion by molar mass, not a printed value.

Assays:
[1] = tested on: H9 (acute lymphoblastic leukemia, ALL); assay: Leukemia cell growth inhibition, MTT, 72 h (Example 5); type: cell-based, human; settings: Homo sapiens; 72 h, MTT
In short: (§1)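 Seed 6000 leukemia cells per well in 1640 medium containing 10% FBS. Add test compounds at different concentrations, mix, incubate 72 hours at 37° C in 5% CO2. Determine viable cells by MTT.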

[2] = tested on: Jurkat (acute lymphoblastic leukemia, ALL); assay: as above; type: cell-based, human; settings: Homo sapiens, Jurkat; 72 h, MTT
In short: as §1

[3] = tested on: K562/adr (drug-resistant, chronic myeloid leukemia, CML); assay: as above; type: cell-based, human; settings: Homo sapiens, K562/Adr; 72 h, MTT
In short: as §1

[4] = tested on: Kasumi-1 (acute myeloid leukemia M2 type, AML-M2); assay: as above; type: cell-based, human; settings: Homo sapiens, Kasumi 1
In short: as §1

[5] = tested on: NB4 (acute promyelocytic leukemia, AML); assay: as above; type: cell-based, human; settings: Homo sapiens; 72 h, MTT
In short: as §1

[6] = tested on: RPMI8226 (multiple myeloma); assay: Multiple myeloma cell growth inhibition, MTT, 72 h (Example 6); type: cell-based, human; settings: Homo sapiens, RPMI-8226; 72 h, MTT, RPMI8226
In short: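 Viability was read by MTT after 72 h of compound exposure at 37 °C, 5% CO2. Each well held 6000 RPMI8226 cells in 1640 medium containing 10% fetal bovine serum, with derivatives added at various concentrations.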

[7] = tested on: CaES-17 (esophageal cancer cell); assay: Solid tumor cell growth inhibition, MTT, 72 h (Example 7); type: cell-based, human; settings: Homo sapiens, CaEs17; 72 h, MTT, CAES-17
In short: (§2)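 MTT read-out of viable cells after 72 h compound treatment, reported as percent viability versus untreated control (100%). Cells seeded at 4000 per well, grown 24 h beforehand in 10% FBS DMEM high glucose, 37 °C, 5% CO2.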

[8] = tested on: Hep-2 (laryngeal carcinoma); assay: as above; type: cell-based, human; settings: Homo sapiens; 72 h, MTT, Hep 2
In short: as §2

MG63 (osteosarcoma) = assay: as above; type: cell-based, human; settings: Homo sapiens; 72 h, MTT, MG-63
In short: as §2

[9] = tested on: PANC-1 (pancreatic cancer); assay: as above; type: cell-based, human; settings: Homo sapiens; 72 h, MTT, PANC-1
In short: as §2

PC-3 (prostate cancer) = assay: as above; type: cell-based, human; settings: Homo sapiens; 72 h, MTT, PC-3
In short: as §2

A549 (human lung cancer) = assay: as above; type: cell-based; settings: Homo sapiens; 72 h, MTT, A549
In short: as §2

[10] = tested on: Becap37 (human breast cancer cell); assay: as above; type: cell-based; settings: Homo sapiens; 72 h, MTT, Becap-37
In short: as §2

[11] = tested on: CNE (nasopharyngeal carcinoma cell); assay: as above; type: cell-based; settings: Homo sapiens
In short: as §2

[12] = tested on: Hela (human cervical cancer cell); assay: as above; type: cell-based; settings: Homo sapiens; 72 h, MTT, Hela
In short: as §2

[13] = tested on: Huh7 (human liver cancer cell); assay: as above; type: cell-based; settings: Homo sapiens; 72 h, MTT, Huh-7
In short: as §2

[14] = tested on: MGC 803 (human gastric cancer cell); assay: as above; type: cell-based; settings: Homo sapiens
In short: as §2

[15] = tested on: RKO (human colon adenocarcinoma cell); assay: as above; type: cell-based; settings: Homo sapiens; 72 h, MTT, RKO
In short: as §2

[16] = tested on: SK-OV-3 (ovarian cancer cell); assay: as above; type: cell-based; settings: Homo sapiens
In short: as §2

[17] = tested on: U87 MG (malignant glioma cell); assay: as above; type: cell-based; settings: Homo sapiens, U-87 MG
In short: as §2

Row | Compound | IC50 [1] | IC90 [1] | IC50 [2] | IC90 [2] | IC50 [3] | IC90 [3] | IC50 [4] | IC90 [4] | IC50 [5] | IC90 [5] | IC50 [6] | IC90 [6] | IC50 [7] | IC90 [7] | IC50 [8] | IC90 [8] | IC50 (MG63 (osteosarcoma)) | IC90 (MG63 (osteosarcoma)) | IC50 [9] | IC90 [9] | further results
1 | COCC(C)OCc1c2c3c(c(OC)c1OC)Oc1cc4c(cc1OC)CCN(C)[C@H]4Cc1ccc(cc1)Oc1cc(ccc1OC)C[C@@H]3N(C)CC2 (some centres unmarked) [BS-TE-406] | 1.38 µg/mL (≈ 1.9 µM) | 3.41 µg/mL (≈ 4.7 µM) | 1.57 µg/mL (≈ 2.17 µM) | 9.9 µg/mL (≈ 13.7 µM) | 1.44 µg/mL (≈ 1.99 µM) | 5.38 µg/mL (≈ 7.42 µM) | 1.33 µg/mL (≈ 1.83 µM) | 6.67 µg/mL (≈ 9.2 µM) | 1.7 µg/mL (≈ 2.35 µM) | 5.5 µg/mL (≈ 7.59 µM) | 0.52 µg/mL (≈ 0.717 µM) | 2.81 µg/mL (≈ 3.88 µM) | 3.94 µg/mL (≈ 5.44 µM) | 16.4 µg/mL (≈ 22.7 µM) | 2.4 µg/mL (≈ 3.31 µM) | 6.87 µg/mL (≈ 9.48 µM) | 2.49 µg/mL (≈ 3.43 µM) | 6.36 µg/mL (≈ 8.77 µM) | 2.73 µg/mL (≈ 3.77 µM) | 16 µg/mL (≈ 22.1 µM) | IC50 (PC-3 (prostate cancer)): 3.32 µg/mL (≈ 4.58 µM); IC90 (PC-3 (prostate cancer)): 6.95 µg/mL (≈ 9.59 µM); IC50 (A549 (human lung cancer)): 8.4 µg/mL (≈ 11.6 µM); IC90 (A549 (human lung cancer)): > 16 µg/mL; IC50 [10]: 3.5 µg/mL (≈ 4.83 µM); IC90 [10]: 10.8 µg/mL (≈ 14.9 µM); IC50 [11]: 1.6 µg/mL (≈ 2.21 µM); IC90 [11]: 3.49 µg/mL (≈ 4.81 µM); IC50 [12]: 1.07 µg/mL (≈ 1.48 µM); IC90 [12]: 2.89 µg/mL (≈ 3.99 µM); IC50 [13]: 2.31 µg/mL (≈ 3.19 µM); IC90 [13]: 3.43 µg/mL (≈ 4.73 µM); IC50 [14]: 2.87 µg/mL (≈ 3.96 µM); IC90 [14]: 8 µg/mL (≈ 11 µM); IC50 [15]: 0.89 µg/mL (≈ 1.23 µM); IC90 [15]: 1.99 µg/mL (≈ 2.75 µM); IC50 [16]: 7.1 µg/mL (≈ 9.79 µM); IC90 [16]: > 16 µg/mL; IC50 [17]: 2.86 µg/mL (≈ 3.95 µM); IC90 [17]: 6.66 µg/mL (≈ 9.19 µM)
2 | COc1ccc2cc1Oc1ccc(cc1)C[C@H]1c3cc(c(OC)cc3CCN1C)Oc1c(OC)c(OC)c(COCc3cccnc3)c3c1[C@H](C2)N(C)CC3 [BS-TE-411] | 1.23 µg/mL (≈ 1.65 µM) | 2.5 µg/mL (≈ 3.36 µM) | 1 µg/mL (≈ 1.34 µM) | 8.5 µg/mL (≈ 11.4 µM) | 0.79 µg/mL (≈ 1.06 µM) | 3.59 µg/mL (≈ 4.83 µM) | 0.75 µg/mL (≈ 1.01 µM) | 3.58 µg/mL (≈ 4.81 µM) | 0.7 µg/mL (≈ 0.941 µM) | 2.6 µg/mL (≈ 3.5 µM) | 0.26 µg/mL (≈ 0.35 µM) | 1.35 µg/mL (≈ 1.81 µM) | 2.76 µg/mL (≈ 3.71 µM) | 11.8 µg/mL (≈ 15.8 µM) | 2.15 µg/mL (≈ 2.89 µM) | 5.69 µg/mL (≈ 7.65 µM) | 1.26 µg/mL (≈ 1.69 µM) | 3.07 µg/mL (≈ 4.13 µM) | 2.29 µg/mL (≈ 3.08 µM) | 8.92 µg/mL (≈ 12 µM) | IC50 (PC-3 (prostate cancer)): 2.41 µg/mL (≈ 3.24 µM); IC90 (PC-3 (prostate cancer)): 5.56 µg/mL (≈ 7.47 µM); IC50 (A549 (human lung cancer)): 5.5 µg/mL (≈ 7.39 µM); IC90 (A549 (human lung cancer)): 15.5 µg/mL (≈ 20.8 µM); IC50 [10]: 1.9 µg/mL (≈ 2.55 µM); IC90 [10]: 4.9 µg/mL (≈ 6.59 µM); IC50 [11]: 1.32 µg/mL (≈ 1.77 µM); IC90 [11]: 3.33 µg/mL (≈ 4.48 µM); IC50 [12]: 1.49 µg/mL (≈ 2 µM); IC90 [12]: 3.45 µg/mL (≈ 4.64 µM); IC50 [13]: 1.13 µg/mL (≈ 1.52 µM); IC90 [13]: 1.66 µg/mL (≈ 2.23 µM); IC50 [14]: 2.15 µg/mL (≈ 2.89 µM); IC90 [14]: 9.02 µg/mL (≈ 12.1 µM); IC50 [15]: 0.26 µg/mL (≈ 0.35 µM); IC90 [15]: 0.6 µg/mL (≈ 0.807 µM); IC50 [16]: 8 µg/mL (≈ 10.8 µM); IC90 [16]: > 16 µg/mL; IC50 [17]: 1.09 µg/mL (≈ 1.47 µM); IC90 [17]: 2.55 µg/mL (≈ 3.43 µM)
